From article PMC5515844, “A new Prenylated Flavonoid induces G0/G1 arrest and apoptosis through p38/JNK MAPK pathways in Human Hepatocellular Carcinoma cells” (Scientific Reports, 2017)

Experiments:
[1] = tested on: A549; assay: MTT cytotoxicity assay; format: cell-based; settings: Homo sapiens, 48 h, mean ± SD
Description: (§1) HepG2 and Hep3B (human hepatoma cells), Bcap37 and MCF-7 (human breast cancer cells), TE-1 (human esophageal cancer cells), A549 (human lung carcinoma cells), U251 and U87 (human glioma cells), were cultured in Dulbecco’s modified Eagle’s medium (DMEM) supplemented with 10% fetal bovine serum (FBS) and 1% penicillin/streptomycin (10000 U/mL penicillin, 10000 μg/ml streptomycin). SH-SY5Y (human neuroblastoma cells), LO2 (human normal liver cell) were grown in RPMI 1640 containing 10% FBS and 100 µg/ml penicillin, 100 µg/ml streptomycin. HepG2, Hep3B, MCF-7, TE-1, A549, U87, U251 and SHSY5Y cells were obtained from the American Type Culture Collection (Manassas, VA, USA). Bcap37 and LO2 cells were purchased from the Cell Bank of Chinese Academy of Sciences (Shanghai, China). All cells were incubated in a humidified atmosphere containing 5% CO2 at 37 °C.
(§2) Cells seeded in 96-well plates with 5 × 10^3 cells/well were adhered overnight and incubated with vehicle control (DMSO) or diverse concentrations of compounds for 48 h. After treatment, 20 μL of MTT (5 mg/mL) was added to each well and incubated for another 4 h at 37 °C. Then, 150 μL of DMSO/well was appended after removed the supernatant to dissolve the formed purple formazan crystals and the color absorbance was measured at 490 nm using a microplate reader (Molecular Devices, Thermo, CA, USA). The inhibition rate (%) was calculated as (A490(control) − A490(drug groups))/(A490(control) − A490(blank)) × 100 and the value of IC50 (the concentration that caused 50% inhibition of cell viability) was determined using SPSS 20.0. This experiment was measured in triplicate, independently.

[2] = tested on: Bcap37; assay: MTT cytotoxicity assay; format: cell-based; settings: Homo sapiens, 48 h, mean ± SD
Description: as §1, §2

[3] = tested on: MCF-7; assay: MTT cytotoxicity assay; format: cell-based; settings: Homo sapiens, MCF7, 48 h, mean ± SD
Description: as §1, §2

[4] = tested on: SH-SY5Y; assay: MTT cytotoxicity assay; format: cell-based; settings: Homo sapiens, 48 h, mean ± SD
Description: as §1, §2

[5] = tested on: TE-1; assay: MTT cytotoxicity assay; format: cell-based; settings: Homo sapiens, 48 h, mean ± SD
Description: as §1, §2

[6] = tested on: U251; assay: MTT cytotoxicity assay; format: cell-based; settings: Homo sapiens, U-251, 48 h, mean ± SD
Description: as §1, §2

[7] = tested on: U87; assay: MTT cytotoxicity assay; format: cell-based; settings: Homo sapiens, U-87 MG, 48 h, mean ± SD
Description: as §1, §2

[8] = tested on: LO2; assay: MTT cytotoxicity assay, normal hepatic cells; format: cell-based; settings: mean ± SD
Description: as §1, §2

[9] = tested on: cyclin D1, cyclin E1, CDK2, CDK4, cleaved-caspase 3, PARP, p38, JNK, ERK in Hep3B cells; assay: Western blotting analysis; format: cell-based, human
Description: (§3) Cells that after treatment were harvested and lysed by radio-immunoprecipitation assay (RIPA) buffer containing protease inhibitor (PMSF, 1 mM) on ice for 30 min. Cells lysates were centrifuged at 12,000 g for 15 min at 4 °C and following the protein concentration in the supernatant was determined using a BCA protein assay kit (Thermo Scientific, Waltham, USA), then cell extracts were added SDS-PAGE sample loading buffer and denatured at 100 °C for 10 min. Equal amount of protein (30 μg) were separated on a 8–15% SDS-PAGE and transferred onto PVDF membranes (0.2 μm, Millipore) using an electroblotting apparatus (Bio-Rad). The membranes were blocked with 5% milk in PBS-T (PBS containing 0.1% Tween 20) for 2 h at room temperature and incubated with primary antibodies at 4 °C overnight. After washed three times with PBS-T, the membranes were incubated with horseradish peroxi-dase (HRP)-conjugated secondary antibody (1:5,000) at room temperature for 2 h, then washed again, and the immunoreactive bands were detected using ECL reagents (ThermoFisher, Waltham, MA).

[10] = tested on: cyclin D1, cyclin E1, CDK2, CDK4, cleaved-caspase 3, PARP, p38, JNK, ERK in HepG2 cells; assay: Western blotting analysis; format: cell-based, human
Description: as §3

[11] = tested on: Hep3B xenografts; assay: In vivo antitumor activity, nude mouse xenograft model; parameters: species or system BALB/c nude mice; settings: for inhibition rate of the tumor volume: vs vehicle group
Description: All of the animal studies and procedures were conducted in accordance with the approval and guidelines of the Shenyang Pharmaceutical University Institutional Animal Care and Use Committee (permission number: SCXK (Jing) 2014-0004). Male BALB/c nude mice at the age of six weeks were obtained from Beijing HFK Bioscience Co., Ltd (Beijing, China). Hep3B cells (1 × 10^5 cells) were implanted subcutaneously into the right backsides of each nude mouse. After 12 days, when the tumor size reached about 100 mm^3, the mice were randomly divided into three groups (n = 6) and intraperitoneally injected with vehicle control or daphnegiravone D (5 and 10 mg/kg body weight) every two days for two weeks. The body weight and tumor sizes were measured every day, and the tumor volume was determined by caliper measurements and calculated by the formula: 0.5236 × L × W ^2, where L is the long axis and W is the short axis of the tumor. The experiment was terminated when the tumors volume of the control group reached about 3000 mm^3. The mice were sacrificed, and the tumors, hearts, livers, spleens, lungs and kidneys were excised immediately to evaluate the antitumor activity and toxicity of daphnegiravone D.
Mouse major organs (heart, liver, spleen, lung, kidney) and tumors were isolated and fixed in 10% buffered formalin for 3 days and embedded in paraffin. The tissues were sectioned at a thickness of 4 μm, and the obtained organ sections were prepared orderly by dewaxing, staining in hematoxylin and eosin-phloxine solution, then dehydrated and mounted with neutral resin. Subsequently, the tumor paraffin sections were deparaffinized, rehydrated, and subjected to antigen retrieval. Immunostaining was performed by the streptavidin-peroxidase (S-P) method (Ultra-sensitive; MaiXin, Fuzhou, China). The primary antibody was mouse anti-Ki67 monoclonal antibody (Maixin Biotech, Fuzhou, China). The peroxidase reaction was developed with 3,3-diaminobenzidine (Maixin Biotech, Fuzhou, China). Finally, the sections tissue morphology were observed using an OLYMPUS microscope.

## COc1c(-c2ccc(O)c(CC=C(C)C)c2)oc2c(CC=C(C)C)c(O)cc(O)c2c1=O [Compound 1, daphnegiravone D]
[1]
  IC50: 21.8 ± 1.34 µM
[2]
  IC50: 28 ± 1.94 µM
[3]
  IC50: 22.3 ± 2.18 µM
[4]
  IC50: 39.1 ± 3.67 µM
[5]
  IC50: 19.3 ± 2.3 µM
[6]
  IC50: 33.4 ± 3.03 µM
[7]
  IC50: 35.1 ± 3.97 µM
[8]; 48 h, normal human hepatic cells
  IC50: 45.1 ± 3.09 µM
[8]; Homo sapiens, L02, 48 h
  IC50: ~45 µM
[9]
  expression of cyclin D1: not significantly changed
  phosphorylated status of ERK: no distinct change
[9]; 48 h
  phosphorylation level of p38: markedly increased
[9]; 48 h, dose-dependent
  levels of cleaved-caspase 3 and -PARP: increased
[9]; dose-dependent
  level of phosphorylated JNK: dramatically reduced
  levels of cyclin E1, CDK2 and CDK4: decreased
[10]; HepG2
  expression of cyclin D1: not significantly changed
  phosphorylated status of ERK: no distinct change
[10]; HepG2, 48 h
  phosphorylation level of p38: markedly increased
[10]; HepG2, 48 h, dose-dependent
  levels of cleaved-caspase 3 and -PARP: increased
[10]; HepG2, dose-dependent
  level of phosphorylated JNK: dramatically reduced
  levels of cyclin E1, CDK2 and CDK4: decreased
[11]; 5 mg/kg i.p. every two days for two weeks
  inhibition rate of the tumor volume: approximately 35.9%
[11]; 10 mg/kg i.p. every two days for two weeks
  inhibition rate of the tumor volume: ~50.3%
[11]; 5 and 10 mg/kg i.p. every two days for two weeks
  tumor volume and tumor weight: markedly decreased
[11]; immunohistochemistry, vs vehicle control
  Ki-67 labeling index (proliferation capacity of tumor): lower proliferation capacity
